Laboratory results published in ChEMBL document CHEMBL5346961, “Discovery and Evaluation of 3-Quinoxalin Urea Derivatives as Potent, Selective, and Orally Available ATM Inhibitors Combined with Chemotherapy for the Treatment of Cancer via Goal-Oriented Molecule Generation and Virtual Screening” (J Med Chem, 2023).

Molecular target: T1, Serine-protein kinase ATM (Homo sapiens, UniProt Q13315)
Experiment: Inhibition of ATM (unknown origin) assessed as remaining activity at 1 uM preincubated with compound for 30 mins followed by substrate addition and measured after 2 hrs by HTRF method relative to control
Conditions: time 2.5 hrs

T1 sequence (Q13315 whole entry): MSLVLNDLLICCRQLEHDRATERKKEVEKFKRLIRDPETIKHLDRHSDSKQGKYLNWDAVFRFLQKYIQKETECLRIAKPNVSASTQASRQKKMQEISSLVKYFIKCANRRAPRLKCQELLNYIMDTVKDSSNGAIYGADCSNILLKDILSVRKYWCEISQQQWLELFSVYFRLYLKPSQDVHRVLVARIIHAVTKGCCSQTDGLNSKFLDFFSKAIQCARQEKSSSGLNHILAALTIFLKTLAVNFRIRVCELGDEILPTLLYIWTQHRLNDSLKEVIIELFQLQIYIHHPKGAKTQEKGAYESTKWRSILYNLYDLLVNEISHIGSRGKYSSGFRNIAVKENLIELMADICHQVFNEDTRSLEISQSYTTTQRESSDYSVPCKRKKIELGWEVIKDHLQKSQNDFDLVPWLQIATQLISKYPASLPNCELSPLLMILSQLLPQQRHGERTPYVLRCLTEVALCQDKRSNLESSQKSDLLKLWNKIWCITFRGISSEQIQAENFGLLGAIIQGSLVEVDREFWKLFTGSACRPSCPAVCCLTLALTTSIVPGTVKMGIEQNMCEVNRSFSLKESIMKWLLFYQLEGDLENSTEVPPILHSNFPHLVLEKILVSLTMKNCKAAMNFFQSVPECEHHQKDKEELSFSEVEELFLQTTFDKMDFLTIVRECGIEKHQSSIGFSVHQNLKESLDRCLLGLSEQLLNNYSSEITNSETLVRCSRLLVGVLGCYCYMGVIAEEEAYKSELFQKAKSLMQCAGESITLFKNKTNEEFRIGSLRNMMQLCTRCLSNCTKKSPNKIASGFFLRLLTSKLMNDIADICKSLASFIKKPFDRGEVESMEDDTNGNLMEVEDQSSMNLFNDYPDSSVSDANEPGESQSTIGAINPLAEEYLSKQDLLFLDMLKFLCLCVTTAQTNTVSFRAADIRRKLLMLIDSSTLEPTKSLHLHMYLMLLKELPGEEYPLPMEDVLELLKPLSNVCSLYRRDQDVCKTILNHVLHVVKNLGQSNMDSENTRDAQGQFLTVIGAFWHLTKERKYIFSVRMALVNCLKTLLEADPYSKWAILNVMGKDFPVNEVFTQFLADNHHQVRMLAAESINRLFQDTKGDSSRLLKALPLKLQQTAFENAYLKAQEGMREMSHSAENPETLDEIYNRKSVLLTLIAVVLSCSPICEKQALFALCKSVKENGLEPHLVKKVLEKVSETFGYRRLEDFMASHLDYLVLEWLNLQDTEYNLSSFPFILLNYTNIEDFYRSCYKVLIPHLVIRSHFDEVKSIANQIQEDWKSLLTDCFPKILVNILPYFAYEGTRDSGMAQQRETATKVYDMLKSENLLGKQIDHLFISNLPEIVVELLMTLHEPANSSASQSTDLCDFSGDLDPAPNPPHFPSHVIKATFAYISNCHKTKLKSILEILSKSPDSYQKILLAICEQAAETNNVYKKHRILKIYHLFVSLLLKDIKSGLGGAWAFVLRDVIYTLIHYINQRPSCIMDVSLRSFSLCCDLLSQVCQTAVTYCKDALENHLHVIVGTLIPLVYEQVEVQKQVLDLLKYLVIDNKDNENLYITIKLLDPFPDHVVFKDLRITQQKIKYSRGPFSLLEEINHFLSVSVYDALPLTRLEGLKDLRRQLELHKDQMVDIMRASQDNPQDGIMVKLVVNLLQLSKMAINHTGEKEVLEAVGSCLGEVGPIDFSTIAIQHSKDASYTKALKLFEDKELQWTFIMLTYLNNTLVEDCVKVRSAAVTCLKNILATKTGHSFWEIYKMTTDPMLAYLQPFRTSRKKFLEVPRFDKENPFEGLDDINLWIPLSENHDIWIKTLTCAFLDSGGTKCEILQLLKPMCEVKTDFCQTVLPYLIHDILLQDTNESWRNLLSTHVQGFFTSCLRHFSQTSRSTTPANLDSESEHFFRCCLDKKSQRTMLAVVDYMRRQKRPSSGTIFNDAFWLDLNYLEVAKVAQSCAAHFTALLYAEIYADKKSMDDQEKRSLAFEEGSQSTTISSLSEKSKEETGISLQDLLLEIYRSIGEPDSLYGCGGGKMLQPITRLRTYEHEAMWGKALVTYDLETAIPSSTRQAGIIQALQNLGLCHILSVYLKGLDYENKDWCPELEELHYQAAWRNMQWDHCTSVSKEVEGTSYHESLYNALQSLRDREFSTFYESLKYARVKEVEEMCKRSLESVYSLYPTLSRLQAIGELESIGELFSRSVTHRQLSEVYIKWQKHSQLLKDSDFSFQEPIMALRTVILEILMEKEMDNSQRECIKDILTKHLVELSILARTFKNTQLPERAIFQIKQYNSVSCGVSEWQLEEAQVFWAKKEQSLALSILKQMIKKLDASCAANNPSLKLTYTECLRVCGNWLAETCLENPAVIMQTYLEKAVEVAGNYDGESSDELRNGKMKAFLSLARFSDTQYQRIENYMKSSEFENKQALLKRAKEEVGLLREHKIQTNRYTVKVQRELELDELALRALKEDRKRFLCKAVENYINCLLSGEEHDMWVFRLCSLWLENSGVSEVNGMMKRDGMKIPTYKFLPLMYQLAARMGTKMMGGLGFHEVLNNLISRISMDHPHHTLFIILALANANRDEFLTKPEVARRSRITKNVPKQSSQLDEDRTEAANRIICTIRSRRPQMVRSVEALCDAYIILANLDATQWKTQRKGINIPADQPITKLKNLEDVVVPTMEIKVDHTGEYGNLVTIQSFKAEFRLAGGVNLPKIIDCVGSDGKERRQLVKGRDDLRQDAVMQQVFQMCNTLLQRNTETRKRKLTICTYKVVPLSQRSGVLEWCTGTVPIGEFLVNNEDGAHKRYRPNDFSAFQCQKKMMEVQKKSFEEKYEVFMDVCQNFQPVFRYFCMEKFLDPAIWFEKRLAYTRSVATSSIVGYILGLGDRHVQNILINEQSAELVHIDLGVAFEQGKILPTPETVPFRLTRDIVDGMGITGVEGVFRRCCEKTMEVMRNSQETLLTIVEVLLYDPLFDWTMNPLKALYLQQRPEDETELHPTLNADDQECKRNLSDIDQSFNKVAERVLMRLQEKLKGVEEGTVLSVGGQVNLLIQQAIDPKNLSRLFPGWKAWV

| Activity | SMILES |
| --- | --- |
| -2% | CC(C)NC(=O)N(C)c1cnc2ccc(-c3ccc(OCCN(C)C)nc3)cc2n1 |

Test system: not listed separately
Experiment: Metabolic stability in human liver microsomes assessed as clearance at 1 uM in presence of NADPH-regenerating system by LC-MS/MS analysis
Assay type: ADME, Microsome
Conditions: not given

| SMILES | CLH |
| --- | --- |
| CC(C)NC(=O)N(C)c1cnc2ccc(-c3ccc(OCCCN4CCOCC4)nc3)cc2n1 | 24 mL/min/g |
| CC(C)NC(=O)N(C)c1cnc2ccc(-c3ccc(OCCCN4CCN(C)CC4)nc3)cc2n1 | 13 mL/min/g |
| CC(C)NC(=O)N(C)c1cnc2ccc(-c3ccc(OCCCN4CCCC4)nc3F)cc2n1 | 6.8 mL/min/g |
| CC(C)NC(=O)N(C)c1cnc2ccc(-c3ccc(OCCCN4CCCC4)nc3)cc2n1 | 5.2 mL/min/g |
| CC(C)NC(=O)N(C)c1cnc2ccc(-c3ccc(OCCN(C)C)nc3)cc2n1 | 37 mL/min/g |
| CC(C)NC(=O)N(C)c1cnc2ccc(-c3ccc(OCCCN4CCCCC4)nc3F)cc2n1 | 7.4 mL/min/g |

Test system: not listed separately
Experiment: Metabolic stability in human liver microsomes assessed as half life at 1 uM in presence of NADPH-regenerating system by LC-MS/MS analysis
Assay type: ADME, Microsome
Conditions: not given

| SMILES | half-life at 1 µM |
| --- | --- |
| CC(C)NC(=O)N(C)c1cnc2ccc(-c3ccc(OCCCN4CCOCC4)nc3)cc2n1 | 1.02 h |
| CC(C)NC(=O)N(C)c1cnc2ccc(-c3ccc(OCCCN4CCN(C)CC4)nc3)cc2n1 | 1.78 h |
| CC(C)NC(=O)N(C)c1cnc2ccc(-c3ccc(OCCCN4CCCC4)nc3F)cc2n1 | 3.4 h |
| CC(C)NC(=O)N(C)c1cnc2ccc(-c3ccc(OCCCN4CCCC4)nc3)cc2n1 | 4.45 h |
| CC(C)NC(=O)N(C)c1cnc2ccc(-c3ccc(OCCN(C)C)nc3)cc2n1 | 0.767 h |
| CC(C)NC(=O)N(C)c1cnc2ccc(-c3ccc(OCCCN4CCCCC4)nc3F)cc2n1 | 3.12 h |

Molecular target: T1, Serine-protein kinase ATM
Experiment: Inhibition of ATM (unknown origin) assessed as remaining activity at 0.01 uM preincubated with compound for 30 mins followed by substrate addition and measured after 2 hrs by HTRF method relative to control
Conditions: time 2.5 hrs

| SMILES | Activity |
| --- | --- |
| CC(C)NC(=O)N(C)c1cnc2ccc(-c3ccc(OCCCN4CCOCC4)nc3)cc2n1 | 4% |
| CC(C)NC(=O)N(C)c1cnc2ccc(-c3ccc(OCCCN4CCN(C)CC4)nc3)cc2n1 | 5% |
| CC(C)NC(=O)N(C)c1cnc2ccc(-c3ccc(OCCN(C)C)nc3)cc2n1 | 73% |

Molecular target: T1, Serine-protein kinase ATM
Experiment: Inhibition of ATM (unknown origin) preincubated with compound for 30 mins followed by substrate addition and measured after 2 hrs by HTRF method
Conditions: not given

| SMILES | IC50 |
| --- | --- |
| CC(C)NC(=O)N(C)c1cnc2ccc(-c3ccc(OCCCN4CCOCC4)nc3)cc2n1 | 3 nM |
| CC(C)NC(=O)N(C)c1cnc2ccc(-c3ccc(OCCCN4CCN(C)CC4)nc3)cc2n1 | 3 nM |
| CC(C)NC(=O)N(C)c1cnc2ccc(-c3ccc(OCCCN4CCCC4)nc3F)cc2n1 | 4 nM |
| CC(C)NC(=O)N(C)c1cnc2ccc(-c3ccc(OCCCN4CCCC4)nc3)cc2n1 | 1.75 nM |
| CC(C)NC(=O)N(C)c1cnc2ccc(-c3ccc(OCCN(C)C)nc3)cc2n1 | 30 nM |
| CC(C)NC(=O)N(C)c1cnc2ccc(-c3ccc(OCCCN4CCCCC4)nc3F)cc2n1 | 1 nM |

Test system: HCT-116
Experiment: Inhibition of colony formation in human HCT-116 cells at 0.01 uM preincubated for 1 hr followed by exposure to 2 Gy gamma irradiation and measured after 1 week by crystal violet staining based […] assay relative to control
Assay type: functional
Conditions: HCT-116, light or radiation study, time 169 hrs

| SMILES | inhibition at 0.01 µM |
| --- | --- |
| CC(C)NC(=O)N(C)c1cnc2ccc(-c3ccc(OCCCN4CCOCC4)nc3)cc2n1 | 64.1% |
| CC(C)NC(=O)N(C)c1cnc2ccc(-c3ccc(OCCCN4CCN(C)CC4)nc3)cc2n1 | 73.6% |
| CC(C)NC(=O)N(C)c1cnc2ccc(-c3ccc(OCCCN4CCCC4)nc3F)cc2n1 | 43.4% |
| CC(C)NC(=O)N(C)c1cnc2ccc(-c3ccc(OCCCN4CCCC4)nc3)cc2n1 | 83.8% |
| CC(C)NC(=O)N(C)c1cnc2ccc(-c3ccc(OCCN(C)C)nc3)cc2n1 | -0.98% |
| CC(C)NC(=O)N(C)c1cnc2ccc(-c3ccc(OCCCN4CCCCC4)nc3F)cc2n1 | 68.7% |
| CN(C)CCCOc1ccc(-c2ccc3ncc4c(c3c2)n(C2CCOCC2)c(=O)n4C)cn1 | 94.3% |

Test system: HCT-116
Experiment: Inhibition of colony formation in human HCT-116 cells preincubated for 1 hr followed by exposure to 2 Gy gamma irradiation and measured after 1 week by crystal violet staining based […] assay
Assay type: functional, cell-based
Conditions: HCT-116, light or radiation study

| SMILES | IC50 |
| --- | --- |
| CC(C)NC(=O)N(C)c1cnc2ccc(-c3ccc(OCCCN4CCOCC4)nc3)cc2n1 | 7.13 nM |
| CC(C)NC(=O)N(C)c1cnc2ccc(-c3ccc(OCCCN4CCN(C)CC4)nc3)cc2n1 | 5.41 nM |
| CC(C)NC(=O)N(C)c1cnc2ccc(-c3ccc(OCCCN4CCCC4)nc3F)cc2n1 | 26.5 nM |
| CC(C)NC(=O)N(C)c1cnc2ccc(-c3ccc(OCCCN4CCCC4)nc3)cc2n1 | 1.76 nM |
| CC(C)NC(=O)N(C)c1cnc2ccc(-c3ccc(OCCCN4CCCCC4)nc3F)cc2n1 | 15.4 nM |
| CN(C)CCCOc1ccc(-c2ccc3ncc4c(c3c2)n(C2CCOCC2)c(=O)n4C)cn1 | 0.46 nM |

Test system: HCT-116
Experiment: Antiproliferative activity against human HCT-116 cells assessed as cell survival at 1 uM incubated for 6 days by MTT assay relative to control
Assay type: functional
Conditions: HCT-116, 144 h, time 6 day, read-out: Survival

| SMILES | viability at 1 µM |
| --- | --- |
| CC(C)NC(=O)N(C)c1cnc2ccc(-c3ccc(OCCCN4CCOCC4)nc3)cc2n1 | > 83% |
| CC(C)NC(=O)N(C)c1cnc2ccc(-c3ccc(OCCCN4CCN(C)CC4)nc3)cc2n1 | > 83% |
| CC(C)NC(=O)N(C)c1cnc2ccc(-c3ccc(OCCCN4CCCC4)nc3)cc2n1 | > 83% |

Test system: SW-620
Experiment: Antiproliferative activity against human SW620 cells assessed as reduction in cell viability incubated for 6 days by MTT assay
Assay type: functional, cell-based
Conditions: SW-620, 144 h

| SMILES | IC50 |
| --- | --- |
| CC(C)NC(=O)N(C)c1cnc2ccc(-c3ccc(OCCCN4CCCC4)nc3)cc2n1 | > 9000 nM |

Test system: MCF7
Experiment: Antiproliferative activity against human MCF7 cells assessed as reduction in cell viability incubated for 6 days by MTT assay
Assay type: functional, cell-based
Conditions: MCF7, 144 h

| SMILES | IC50 |
| --- | --- |
| CC(C)NC(=O)N(C)c1cnc2ccc(-c3ccc(OCCCN4CCCC4)nc3)cc2n1 | > 9000 nM |

Test system: HCT-116
Experiment: Inhibition of colony formation in human HCT-116 cells assessed as assessed as fold change in IC50 in presence of ionizing radiation
Assay type: functional
Conditions: not given

| SMILES | fold change (FC) |
| --- | --- |
| CC(C)NC(=O)N(C)c1cnc2ccc(-c3ccc(OCCCN4CCCC4)nc3)cc2n1 | 8284 |

Test system: MCF7
Experiment: Synergistic antiproliferative activity against human MCF7 cells assessed as fold increase in etoposide IC50 at 200 nM measured after 6 days by MTT assay
Assay type: functional
Conditions: time 6 day

| SMILES | fold change (FC) |
| --- | --- |
| CC(C)NC(=O)N(C)c1cnc2ccc(-c3ccc(OCCCN4CCCC4)nc3)cc2n1 | 3 |

Test system: MCF7
Experiment: Synergistic antiproliferative activity against human MCF7 cells assessed as fold increase in irinotecan IC50 at 200 nM measured after 6 days by MTT assay
Assay type: functional
Conditions: time 6 day

| SMILES | fold change (FC) |
| --- | --- |
| CC(C)NC(=O)N(C)c1cnc2ccc(-c3ccc(OCCCN4CCCC4)nc3)cc2n1 | 13 |

Test system: MCF7
Experiment: Synergistic antiproliferative activity against human MCF7 cells assessed as combination index at […] measured after 6 days in presence etoposide by MTT assay
Assay type: functional
Conditions: dose lower 100 µM; time 6 day

| SMILES | CI |
| --- | --- |
| CC(C)NC(=O)N(C)c1cnc2ccc(-c3ccc(OCCCN4CCCC4)nc3)cc2n1 | <1 |

Test system: MCF7
Experiment: Synergistic antiproliferative activity against human MCF7 cells assessed as combination index at […] measured after 6 days in presence irinotecan by MTT assay
Assay type: functional
Conditions: dose lower 100 µM; time 6 day

| SMILES | CI |
| --- | --- |
| CC(C)NC(=O)N(C)c1cnc2ccc(-c3ccc(OCCCN4CCCC4)nc3)cc2n1 | <1 |

Test system: MCF7
Experiment: cells
Conditions: Homo sapiens, MCF7, 144 h

| IC50 | SMILES |
| --- | --- |
| 210 nM | COc1cc([C@@H]2c3cc4c(cc3[C@@H](O[C@@H]3O[C@@H]5CO[C@@H](C)O[C@H]5[C@H](O)[C@H]3O)[C@H]3COC(=O)[C@H]23)OCO4)cc(OC)c1O [ETOPOSIDE] |
